For one assay, the target named is T1, GdpP (Staphylococcus aureus, UniProt A0A0H2XJV8).
T1 construct: gene SAUSA300_0014
Nature of the assay: radiolabelled c-di-AMP hydrolysis, TLC. The format is biochemical.

In the next assay the target is T2, Pde2 (Staphylococcus aureus, UniProt A0A0H2XFX6).
T2 construct: gene SAUSA300_1650
Nature of the assay: radiolabelled pApA hydrolysis, TLC. The format is biochemical.

Drawing on PMC5207132, “New Insights into the Cyclic Di-adenosine Monophosphate (c-di-AMP) Degradation Pathway and the Requirement of the Cyclic Dinucleotide for Acid Stress Resistance in Staphylococcus aureus” (The Journal of Biological Chemistry, 2016), this text covers IC50 for two molecules.

A word on the IC50: it is the concentration that inhibits the measured activity by half.

T1 sequence (A0A0H2XJV8 entry or part of it): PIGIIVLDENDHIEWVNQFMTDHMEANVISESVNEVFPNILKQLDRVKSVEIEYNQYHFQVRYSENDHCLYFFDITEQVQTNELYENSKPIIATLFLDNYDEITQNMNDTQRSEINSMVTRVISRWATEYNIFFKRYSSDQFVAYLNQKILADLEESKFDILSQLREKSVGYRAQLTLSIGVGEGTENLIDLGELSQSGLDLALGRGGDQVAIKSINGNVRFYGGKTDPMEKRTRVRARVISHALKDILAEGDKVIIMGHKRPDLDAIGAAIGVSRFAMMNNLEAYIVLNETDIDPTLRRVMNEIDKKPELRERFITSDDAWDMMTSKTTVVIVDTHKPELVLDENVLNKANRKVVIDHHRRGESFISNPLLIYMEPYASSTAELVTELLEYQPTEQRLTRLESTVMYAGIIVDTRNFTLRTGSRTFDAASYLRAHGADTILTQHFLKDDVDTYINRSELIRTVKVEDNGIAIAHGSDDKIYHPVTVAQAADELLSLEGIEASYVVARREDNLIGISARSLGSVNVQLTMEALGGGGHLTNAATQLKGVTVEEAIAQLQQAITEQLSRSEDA
T2 sequence (A0A0H2XFX6 entry or part of it): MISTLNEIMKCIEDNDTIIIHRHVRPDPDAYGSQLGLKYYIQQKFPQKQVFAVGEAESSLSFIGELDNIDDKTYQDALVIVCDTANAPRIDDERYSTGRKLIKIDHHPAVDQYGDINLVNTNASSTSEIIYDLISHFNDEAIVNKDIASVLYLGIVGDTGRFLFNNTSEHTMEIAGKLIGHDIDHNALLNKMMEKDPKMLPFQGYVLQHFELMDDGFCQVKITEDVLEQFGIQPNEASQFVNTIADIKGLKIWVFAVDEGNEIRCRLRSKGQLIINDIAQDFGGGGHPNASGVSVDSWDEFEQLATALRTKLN

On to `Nc1ncnc2c1ncn2[C@@H]1O[C@H](COP(=O)(O)O[C@H]2[C@@H](O)[C@H](n3cnc4c(N)ncnc43)O[C@@H]2COP(=O)(O)O)[C@@H](O)[C@H]1O` [pApA], for which, on GdpP, half-maximal inhibition (IC50) required 78 ± 2.34 µM. The molecule `Nc1nc2c(ncn2[C@@H]2O[C@H](COP(=O)(O)OP(=O)(O)O)[C@@H](OP(=O)(O)OP(=O)(O)O)[C@H]2O)c(=O)[nH]1` [ppGpp] registered an IC50 against Pde2 of 139 ± 5.6 µM.
